Measured values as given in US20250235434A1, “RIFABUTIN ANALOGS FOR THE TREATMENT OF DISEASE” (BIOVERSYS AG, priority 2022, published 2025).
Values after ≈ are worked out from the molar mass of the structure shown. Where two headings read alike, the source gives them in different places.

Tests used:
Assay type in all cases: cell-based
[1] = test system: S. aureus (UAMS-1625 strain); assay: MIC by broth microdilution against S. aureus; conditions: Staphylococcus aureus, 20 h, read-out: MIC S. aureus
[2] = test system: A. baumannii (HUMC1 strain); assay: MIC by broth microdilution against A. baumannii; conditions: Acinetobacter baumannii, RPMI medium supplemented with 10% FCS, 35° C. for 20 hours, visual reading
[3] = test system: M. abscessus (ATCC 19977); assay: MIC by broth microdilution against M. abscessus; conditions: Mycobacteroides abscessus, ATCC19977, 20 h, read-out: MIC M. abscessus
[4] = test system: M. smegmatis (ATCC 700084); assay: MIC against M. smegmatis (resazurin assay); conditions: Mycolicibacterium smegmatis, ATCC700084, Middlebrook 7H9 + ADC, 90% growth inhibition, 20 h
M. xenopi (ATCC 19250) = assay: MIC against M. xenopi (resazurin assay); conditions: Mycobacterium xenopi, ATCC19250, 168 h, Middlebrook 7H9 + ADC, 90% growth inhibition, 7 days
M. avium (ATCC 25291) = assay: MIC against M. avium (resazurin assay); conditions: Mycobacterium avium, ATCC25291, 168 h, Middlebrook 7H9 + ADC, 90% growth inhibition, 7 days
M. kansasii (ATCC 12478) = assay: MIC against M. kansasii (resazurin assay); conditions: Mycobacterium kansasii, ATCC12478, 168 h, Middlebrook 7H9 + ADC, 90% growth inhibition, 7 days
[5] = test system: M. tuberculosis H37Rv (ATCC 27294); assay: microbe, parasite or virus in culture; conditions: Mycobacterium tuberculosis, 120 h
[6] = ATCC 19977, Middlebrook 7H9 broth with ADC supplement, visual reading

| SMILES | MIC [1] | MIC [2] | MIC [3, 6] | MIC [4] | MIC (M. xenopi (ATCC 19250)) | MIC (M. avium (ATCC 25291)) | MIC (M. kansasii (ATCC 12478)) | MIC [5] | MIC [3] |
| --- | --- | --- | --- | --- | --- | --- | --- | --- | --- |
| CO[C@H]1/C=C/O[C@@]2(C)Oc3c(C)c(O)c4c(c3C2=O)C2=NC3(CCN(CC(C)C)CC3)NC2=C(NC(=O)/C(C)=C\C=C\[C@H](C)[C@H](O)[C@@H](C)[C@@H](O)[C@@H](C)[C@H](OC(=O)CN2CCC(O)(Cc3ccccc3)CC2)[C@@H]1C)C4=O [Compound 24] | 0.125 µg/mL (≈ 121 nM) | 0.016 µg/mL (≈ 15.4 nM) | 1 µg/mL (≈ 965 nM) | 0.1 µg/mL | 0.01 µg/mL | 2 µg/mL | 0.01 µg/mL | 0.004 µg/mL (≈ 3.86 nM) | – |
| CO[C@H]1/C=C/O[C@@]2(C)Oc3c(C)c(O)c4c(c3C2=O)C2=NC3(CCN(CC(C)C)CC3)NC2=C(NC(=O)/C(C)=C\C=C\[C@H](C)[C@H](O)[C@@H](C)[C@@H](O)[C@@H](C)[C@H](OC(=O)CN2CCC3(CC2)C(=O)NCN3c2ccccc2)[C@@H]1C)C4=O [Compound 20] | 0.5 µg/mL (≈ 465 nM) | 0.03 µg/mL (≈ 27.9 nM) | 0.25 µg/mL (≈ 232 nM) | 0.1 µg/mL | 0.03 µg/mL | 0.5 µg/mL | 0.01 µg/mL | 0.003 µg/mL (≈ 2.79 nM) | – |
| CO[C@H]1/C=C/O[C@@]2(C)Oc3c(C)c(O)c4c(c3C2=O)C2=NC3(CCN(CC(C)C)CC3)NC2=C(NC(=O)/C(C)=C\C=C\[C@H](C)[C@H](O)[C@@H](C)[C@@H](O)[C@@H](C)[C@H](OC(=O)CN2CCC(N(C)C)CC2)[C@@H]1C)C4=O [Compound 3] | 0.03 µg/mL (≈ 30.8 nM) | ≤ 0.002 µg/mL | 1 µg/mL (≈ 1030 nM) | 0.03 µg/mL | 0.07 µg/mL | 1.2 µg/mL | 0.01 µg/mL | 0.008 µg/mL (≈ 8.22 nM) | – |
| CO[C@H]1/C=C/O[C@@]2(C)Oc3c(C)c(O)c4c(c3C2=O)C2=NC3(CCN(CC(C)C)CC3)NC2=C(NC(=O)/C(C)=C\C=C\[C@H](C)[C@H](O)[C@@H](C)[C@@H](O)[C@@H](C)[C@H](OC(=O)CN2CCC3C(CCCN3Cc3ccccc3)C2)[C@@H]1C)C4=O (stereo partly drawn) [Compound 28] | 0.125 µg/mL (≈ 116 nM) | 0.016 µg/mL (≈ 14.9 nM) | – | 0.1 µg/mL | 0.03 µg/mL | 3.9 µg/mL | 0.01 µg/mL | 0.003 µg/mL (≈ 2.79 nM) | 0.125 µg/mL (≈ 116 nM) |
| CO[C@H]1/C=C/O[C@@]2(C)Oc3c(C)c(O)c4c(c3C2=O)C2=NC3(CCN(CC(C)C)CC3)NC2=C(NC(=O)/C(C)=C\C=C\[C@H](C)[C@H](O)[C@@H](C)[C@@H](O)[C@@H](C)[C@H](OC(=O)CN2CCC(Oc3ccccc3)CC2)[C@@H]1C)C4=O [Compound 25] | 1 µg/mL (≈ 978 nM) | 0.06 µg/mL (≈ 58.7 nM) | 1 µg/mL (≈ 978 nM) | 0.1 µg/mL | 0.02 µg/mL | 0.8 µg/mL | 0.02 µg/mL | 0.008 µg/mL (≈ 7.83 nM) | – |
| CO[C@H]1/C=C/O[C@@]2(C)Oc3c(C)c(O)c4c(c3C2=O)C2=NC3(CCN(CC(C)C)CC3)NC2=C(NC(=O)/C(C)=C\C=C\[C@H](C)[C@H](O)[C@@H](C)[C@@H](O)[C@@H](C)[C@H](OC(=O)CN2CCN(C)CC2)[C@@H]1C)C4=O [Compound 6] | 0.03 µg/mL (≈ 31.7 nM) | ≤ 0.002 µg/mL | 1 µg/mL (≈ 1060 nM) | 0.03 µg/mL | 0.04 µg/mL | 1.3 µg/mL | 0.01 µg/mL | 0.008 µg/mL (≈ 8.46 nM) | – |
| CO[C@H]1/C=C/O[C@@]2(C)Oc3c(C)c(O)c4c(c3C2=O)C2=NC3(CCN(CC(C)C)CC3)NC2=C(NC(=O)/C(C)=C\C=C\[C@H](C)[C@H](O)[C@@H](C)[C@@H](O)[C@@H](C)[C@H](OC(=O)CN2CCCN(c3ccc(F)cc3)CC2)[C@@H]1C)C4=O [Compound 34] | 2 µg/mL (≈ 1920 nM) | 0.125 µg/mL (≈ 120 nM) | 0.5 µg/mL (≈ 481 nM) | 0.11 µg/mL | 0.01 µg/mL | 0.5 µg/mL | 0.009 µg/mL | 0.008 µg/mL (≈ 7.7 nM) | – |
| CO[C@H]1/C=C/O[C@@]2(C)Oc3c(C)c(O)c4c(c3C2=O)C2=NC3(CCN(CC(C)C)CC3)NC2=C(NC(=O)/C(C)=C\C=C\[C@H](C)[C@H](O)[C@@H](C)[C@@H](O)[C@@H](C)[C@H](OC(=O)CN2CCN(CC3CCCCC3)CC2)[C@@H]1C)C4=O [Compound 40] | 0.25 µg/mL (≈ 243 nM) | 0.125 µg/mL (≈ 122 nM) | 0.125 µg/mL (≈ 122 nM) | 0.02 µg/mL | 0.05 µg/mL | 0.19 µg/mL | 0.008 µg/mL | 0.004 µg/mL (≈ 3.89 nM) | – |
| CO[C@H]1/C=C/O[C@@]2(C)Oc3c(C)c(O)c4c(c3C2=O)C2=NC3(CCN(CC(C)C)CC3)NC2=C(NC(=O)/C(C)=C\C=C\[C@H](C)[C@H](O)[C@@H](C)[C@@H](O)[C@@H](C)[C@H](OC(=O)CN2CCC(N3CCCCC3)CC2)[C@@H]1C)C4=O [Compound 26] | 0.06 µg/mL (≈ 59.2 nM) | ≤ 0.002 µg/mL | 0.5 µg/mL (≈ 493 nM) | 0.04 µg/mL | 0.06 µg/mL | 1.15 µg/mL | 0.02 µg/mL | 0.007 µg/mL (≈ 6.91 nM) | – |
| CO[C@H]1/C=C/O[C@@]2(C)Oc3c(C)c(O)c4c(c3C2=O)C2=NC3(CCN(CC(C)C)CC3)NC2=C(NC(=O)/C(C)=C\C=C\[C@H](C)[C@H](O)[C@@H](C)[C@@H](O)[C@@H](C)[C@H](OC(=O)CN2CCC(n3c(=O)[nH]c5ccccc53)CC2)[C@@H]1C)C4=O [Compound 18] | 0.5 µg/mL (≈ 471 nM) | 0.03 µg/mL (≈ 28.2 nM) | 0.5 µg/mL (≈ 471 nM) | 0.09 µg/mL | 0.01 µg/mL | 1.3 µg/mL | 0.01 µg/mL | 0.002 µg/mL (≈ 1.88 nM) | – |
| CO[C@H]1/C=C/O[C@@]2(C)Oc3c(C)c(O)c4c(c3C2=O)C2=NC3(CCN(CC(C)C)CC3)NC2=C(NC(=O)/C(C)=C\C=C\[C@H](C)[C@H](O)[C@@H](C)[C@@H](O)[C@@H](C)[C@H](OC(=O)CN2CCC(N(C)c3ccccc3)CC2)[C@@H]1C)C4=O [Compound 39] | 0.125 µg/mL (≈ 121 nM) | ≤ 0.03 µg/mL | – | 0.06 µg/mL | 0.003 µg/mL | 0.4 µg/mL | 0.003 µg/mL | 0.0001 µg/mL (≈ 0.0966 nM) | 0.125 µg/mL (≈ 121 nM) |
| CO[C@H]1/C=C/O[C@@]2(C)Oc3c(C)c(O)c4c(c3C2=O)C2=NC3(CCN(CC(C)C)CC3)NC2=C(NC(=O)/C(C)=C\C=C\[C@H](C)[C@H](O)[C@@H](C)[C@@H](O)[C@@H](C)[C@H](OC(=O)CN2CCc3[nH]c5ccccc5c3C2)[C@@H]1C)C4=O [Compound 33] | 1 µg/mL (≈ 983 nM) | 0.125 µg/mL (≈ 123 nM) | 0.5 µg/mL (≈ 492 nM) | 0.1 µg/mL | 0.7 µg/mL | 0.3 µg/mL | 0.01 µg/mL | 0.008 µg/mL (≈ 7.86 nM) | – |
| CO[C@H]1/C=C/O[C@@]2(C)Oc3c(C)c(O)c4c(c3C2=O)C2=NC3(CCN(CC(C)C)CC3)NC2=C(NC(=O)/C(C)=C\C=C\[C@H](C)[C@H](O)[C@@H](C)[C@@H](O)[C@@H](C)[C@H](OC(=O)CNCCN2CCOCC2)[C@@H]1C)C4=O [Compound 10] | 0.03 µg/mL (≈ 30.8 nM) | ≤ 0.002 µg/mL | 1 µg/mL (≈ 1030 nM) | 0.1 µg/mL | 0.01 µg/mL | 1 µg/mL | 0.015 µg/mL | 0.008 µg/mL (≈ 8.2 nM) | – |
| CO[C@H]1/C=C/O[C@@]2(C)Oc3c(C)c(O)c4c(c3C2=O)C2=NC3(CCN(CC(C)C)CC3)NC2=C(NC(=O)/C(C)=C\C=C\[C@H](C)[C@H](O)[C@@H](C)[C@@H](O)[C@@H](C)[C@H](OC(=O)CN2CCC(n3c(=O)[nH]c5cc(Cl)ccc53)CC2)[C@@H]1C)C4=O [Compound 19] | 4 µg/mL (≈ 3650 nM) | 0.125 µg/mL (≈ 114 nM) | 0.5 µg/mL (≈ 456 nM) | 0.24 µg/mL | 0.03 µg/mL | 4 µg/mL | 0.015 µg/mL | 0.003 µg/mL (≈ 2.74 nM) | – |
| CO[C@H]1/C=C/O[C@@]2(C)Oc3c(C)c(O)c4c(c3C2=O)C2=NC3(CCN(CC(C)C)CC3)NC2=C(NC(=O)/C(C)=C\C=C\[C@H](C)[C@H](O)[C@@H](C)[C@@H](O)[C@@H](C)[C@H](OC(=O)CNCCCN(C)C)[C@@H]1C)C4=O [Compound 12] | 0.03 µg/mL (≈ 31.7 nM) | ≤ 0.002 µg/mL | 1 µg/mL (≈ 1060 nM) | 0.03 µg/mL | 0.01 µg/mL | 1.4 µg/mL | 0.0055 µg/mL | 0.003 µg/mL (≈ 3.17 nM) | – |
